# According to patent US12077503B2, “Substituted cyclic amides and their use as herbicides” (FMC CORPORATION, priority 2015, dated 2024):
# Read-outs that look alike come from different tables or passages of the source.
# Tests used:
# Format in all cases: in vivo
# [1] = tested on: barnyardgrass (Echinochloa crus-galli); experiment: Test A preemergence; details: Echinochloa crus-galli, pre-emergence, 240 h; for pest or weed control at 125 g/ha: 125 g ai/ha, 0 to 100 scale where 0 is no effect and 100 is complete control; for pest or weed control at 500 g/ha: 500 g ai/ha
# In short: (§1)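 Seeded soil received test chemicals as a preemergence directed spray, and seedlings at one to two leaves, 2–10 cm tall, received them postemergence, in a non-phytotoxic, surfactant-containing solvent mixture. Pots were held in a greenhouse for approximately 10 d, then rated for injury from 0, no effect, to 100, complete control.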
# [2] = tested on: Galium (catchweed bedstraw, Galium aparine); experiment: Test A postemergence; details: Galium, post-emergence, 240 h; for pest or weed control at 125 g/ha: 125 g ai/ha, postemergence; for pest or weed control at 500 g/ha: Postemergence, 500 g ai/ha, 0 to 100 scale where 0 is no effect and 100 is complete control
# In short: as §1
# [3] = tested on: Kochia (Kochia scoparia); experiment: Test A postemergence; details: Bassia scoparia, post-emergence, 240 h; for pest or weed control at 125 g/ha: 125 g ai/ha, postemergence; for pest or weed control at 500 g/ha: Postemergence, 500 g ai/ha, 0 to 100 scale where 0 is no effect and 100 is complete control
# In short: as §1
# [4] = tested on: barnyardgrass (Echinochloa crus-galli); experiment: Test A postemergence; details: Echinochloa crus-galli, post-emergence, 240 h; for pest or weed control at 125 g/ha: 125 g ai/ha, postemergence; for pest or weed control at 500 g/ha: Postemergence, 500 g ai/ha, 0 to 100 scale where 0 is no effect and 100 is complete control
# In short: as §1
# [5] = tested on: blackgrass (Alopecurus myosuroides); experiment: Test A postemergence; details: Alopecurus myosuroides, post-emergence, 240 h; for pest or weed control at 125 g/ha: 125 g ai/ha, postemergence; for pest or weed control at 500 g/ha: Postemergence, 500 g ai/ha, 0 to 100 scale where 0 is no effect and 100 is complete control
# In short: as §1
# [6] = tested on: corn (Zea mays); experiment: Test A postemergence; details: Zea mays, post-emergence, 240 h; for Corn plant response rating (crop injury, 0 = no effect, 100 = complete kill) at 125 g/ha: visual rating after approx. 10 d, 0 to 100 scale (0 no effect, 100 complete control); for Corn plant response rating (crop injury, 0 = no effect, 100 = complete kill) at 500 g/ha: Postemergence, 500 g ai/ha, 0 to 100 scale where 0 is no effect and 100 is complete control
# In short: as §1
# [7] = tested on: giant foxtail (Setaria faberii); experiment: Test A postemergence; details: Setaria faberi, post-emergence, 240 h; for pest or weed control at 125 g/ha: 125 g ai/ha, postemergence; for pest or weed control at 500 g/ha: Postemergence, 500 g ai/ha, 0 to 100 scale where 0 is no effect and 100 is complete control
# In short: as §1
# [8] = tested on: pigweed (Amaranthus retroflexus); experiment: Test A postemergence; details: Amaranthus retroflexus, post-emergence, 240 h; for pest or weed control at 125 g/ha: 125 g ai/ha, postemergence; for pest or weed control at 500 g/ha: Postemergence, 500 g ai/ha, 0 to 100 scale where 0 is no effect and 100 is complete control
# In short: as §1
# [9] = tested on: ragweed (common ragweed, Ambrosia elatior); experiment: Test A postemergence; details: Ambrosia artemisiifolia, post-emergence, 240 h; for pest or weed control at 125 g/ha: 125 g ai/ha, postemergence; for pest or weed control at 500 g/ha: Postemergence, 500 g ai/ha, 0 to 100 scale where 0 is no effect and 100 is complete control
# In short: as §1
# [10] = tested on: ryegrass, Italian (Italian ryegrass, Lolium multiflorum); experiment: Test A postemergence; details: Lolium multiflorum, post-emergence, 240 h; for pest or weed control at 125 g/ha: 125 g ai/ha, postemergence; for pest or weed control at 500 g/ha: Postemergence, 500 g ai/ha, 0 to 100 scale where 0 is no effect and 100 is complete control
# In short: as §1
# [11] = tested on: wheat (Triticum aestivum); experiment: Test A postemergence; details: Triticum aestivum, post-emergence, 240 h; for plant injury at 125 g/ha: 125 g ai/ha, postemergence; for plant injury at 500 g/ha: Postemergence, 500 g ai/ha, 0 to 100 scale where 0 is no effect and 100 is complete control
# In short: as §1
# [12] = tested on: barnyardgrass (Echinochloa crus-galli); experiment: Test B flooded paddy test; details: Flood, 250 g ai/ha; for Plant response rating, Barnyardgrass: 0 to 100 scale where 0 is no effect and 100 is complete control, 13 to 15 d
# In short: (§2)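 2-leaf plants; pots flooded 3 cm over soil; cpd added to paddy water; depth held; greenhouse 13–15 d; visual rating vs controls, 0 = no effect, 100 = complete control.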
# [13] = tested on: ducksalad (Heteranthera limosa); experiment: Test B flooded paddy test; details: Flood, 250 g ai/ha; for Plant response rating, Ducksalad: 0 to 100 scale where 0 is no effect and 100 is complete control, 13 to 15 d
# In short: as §2
# [14] = tested on: rice (Oryra sativa); experiment: Test B flooded paddy test; details: Flood, 250 g ai/ha; for Plant response rating, Rice: 0 to 100 scale where 0 is no effect and 100 is complete control, 13 to 15 d
# In short: as §2
# [15] = tested on: sedge, umbrella (small-flower umbrella sedge, Cyperus difformis); experiment: Test B flooded paddy test; details: Flood, 250 g ai/ha; for Plant response rating, Sedge, Umbrella: 0 to 100 scale where 0 is no effect and 100 is complete control, 13 to 15 d
# In short: as §2
# [16] = Preemergence, visual injury after approximately 10 d, read-out: Plant response rating, Barnyardgrass
# [17] = visual rating after approx. 10 d, 0 to 100 scale (0 no effect, 100 complete control), read-out: Plant response rating, Galium
# [18] = read-out: Plant response rating, Galium
# [19] = visual rating after approx. 10 d, 0 to 100 scale (0 no effect, 100 complete control), read-out: Plant response rating, Kochia
# [20] = read-out: Plant response rating, Kochia
# [21] = visual rating after approx. 10 d, 0 to 100 scale (0 no effect, 100 complete control), read-out: Plant response rating, Barnyardgrass
# [22] = read-out: Plant response rating, Barnyardgrass
# [23] = visual rating after approx. 10 d, 0 to 100 scale (0 no effect, 100 complete control), read-out: Plant response rating, Blackgrass
# [24] = read-out: Plant response rating, Blackgrass
# [25] = visual rating after approx. 10 d, 0 to 100 scale (0 no effect, 100 complete control), read-out: Plant response rating, Foxtail, Giant
# [26] = read-out: Plant response rating, Foxtail, Giant
# [27] = visual rating after approx. 10 d, 0 to 100 scale (0 no effect, 100 complete control), read-out: Plant response rating, Pigweed
# [28] = read-out: Plant response rating, Pigweed
# [29] = visual rating after approx. 10 d, 0 to 100 scale (0 no effect, 100 complete control), read-out: Plant response rating, Ragweed
# [30] = read-out: Plant response rating, Ragweed
# [31] = visual rating after approx. 10 d, 0 to 100 scale (0 no effect, 100 complete control), read-out: Plant response rating, Ryegrass, Italian
# [32] = read-out: Plant response rating, Ryegrass, Italian
# [33] = visual rating after approx. 10 d, 0 to 100 scale (0 no effect, 100 complete control), read-out: Plant response rating, Wheat
# [34] = read-out: Plant response rating, Wheat
SMILES,"pest or weed control at 125 g/ha [1, 16]","pest or weed control at 125 g/ha [2, 17]","pest or weed control at 500 g/ha [2, 18]","pest or weed control at 125 g/ha [3, 19]","pest or weed control at 500 g/ha [3, 20]","pest or weed control at 125 g/ha [4, 21]","pest or weed control at 500 g/ha [4, 22]","pest or weed control at 125 g/ha [5, 23]","pest or weed control at 500 g/ha [5, 24]","Corn plant response rating (crop injury, 0 = no effect, 100 = complete kill) at 125 g/ha ([6]; 125 g ai/ha, postemergence)","Corn plant response rating (crop injury, 0 = no effect, 100 = complete kill) at 500 g/ha [6]","pest or weed control at 125 g/ha [7, 25]","pest or weed control at 500 g/ha [7, 26]","pest or weed control at 125 g/ha [8, 27]","pest or weed control at 500 g/ha [8, 28]","pest or weed control at 125 g/ha [9, 29]","pest or weed control at 500 g/ha [9, 30]","pest or weed control at 125 g/ha [10, 31]","pest or weed control at 500 g/ha [10, 32]","plant injury at 125 g/ha [11, 33]",also measured
"CN1C[C@H](c2ccc(F)c(F)c2)[C@@H](C(=O)Nc2ccccc2F)C1=O [Compound 596, (3S,4S)-4-(3,4-difluorophenyl)-N-(2-fluorophenyl)-1-methyl-2-oxo-3-pyrrolidinecarboxamide]",90%,30%,50%,40%,60%,90%,90%,20%,50%,20%,60%,90%,90%,0%,20%,0%,0%,0%,40%,0%,"pest or weed control at 500 g/ha ([1]; Preemergence, visual injury approx. 10 d, read-out: Barnyardgrass plant response rating (0 to 100 scale, 0 is no effect, 100 is complete control)): 100%; plant injury at 500 g/ha [11, 34]: 50%; Plant response rating, Barnyardgrass [12]: 95; Plant response rating, Ducksalad [13]: 100; Plant response rating, Rice [14]: 0; Plant response rating, Sedge, Umbrella [15]: 0"
"CN1C[C@H](c2ccc(C(F)(F)F)cc2)[C@@H](C(=O)Nc2cccc(F)c2F)C1=O [Compound 623, (3S,4S)—N-(2,3-difluorophenyl)-1-methyl-2-oxo-4-[4-(trifluoromethyl)phenyl]-3-pyrrolidinecarboxamide]",90%,50%,60%,40%,70%,90%,90%,50%,60%,60%,70%,90%,90%,60%,60%,20%,0%,30%,60%,40%,"pest or weed control at 500 g/ha ([1]; preemergence, 0 to 100 scale, 0 = no effect, 100 = complete control, read-out: Plant response rating, Barnyardgrass): 90%; plant injury at 500 g/ha [11, 34]: 70%; Plant response rating, Barnyardgrass [12]: 40; Plant response rating, Ducksalad [13]: 50; Plant response rating, Rice [14]: 0; Plant response rating, Sedge, Umbrella [15]: 0"
CC(C)c1cccc([C@H]2CN(C)C(=O)[C@@H]2C(=O)Nc2ccccc2S(C)(=O)=O)c1 [Compound 820],,,,,,,,,,,,,,,,,,,,,"pest or weed control at 125 g/ha ([1]; preemergence, read-out: Barnyardgrass plant response rating): 90%; pest or weed control at 500 g/ha ([1]; Preemergence, visual injury vs untreated controls after approximately 10 d, read-out: Barnyardgrass plant response rating (0 to 100 scale where 0 is no effect and 100 is complete control)): 100%; pest or weed control at 125 g/ha ([2]; visual injury rating after approximately 10 d, read-out: Galium plant response rating (0 to 100 scale, 0 no effect, 100 complete control)): 30%; pest or weed control at 125 g/ha ([3]; visual injury rating after approximately 10 d, read-out: Kochia plant response rating (0 to 100 scale, 0 no effect, 100 complete control)): 20%; pest or weed control at 125 g/ha ([4]; visual injury rating after approximately 10 d, read-out: Barnyardgrass plant response rating (0 to 100 scale, 0 no effect, 100 complete control)): 90%; pest or weed control at 125 g/ha ([5]; visual injury rating after approximately 10 d, read-out: Blackgrass plant response rating (0 to 100 scale, 0 no effect, 100 complete control)): 40%; plant injury at 125 g/ha ([6]; 125 g ai/ha, postemergence, visual injury rating after approximately 10 d, read-out: Corn plant response rating (0 to 100 scale, 0 no effect, 100 complete control)): 30%; pest or weed control at 125 g/ha ([7]; visual injury rating after approximately 10 d, read-out: Foxtail, Giant plant response rating (0 to 100 scale, 0 no effect, 100 complete control)): 90%; pest or weed control at 125 g/ha ([8]; visual injury rating after approximately 10 d, read-out: Pigweed plant response rating (0 to 100 scale, 0 no effect, 100 complete control)): 20%; pest or weed control at 125 g/ha ([9]; visual injury rating after approximately 10 d, read-out: Ragweed plant response rating (0 to 100 scale, 0 no effect, 100 complete control)): 20%; pest or weed control at 125 g/ha ([10]; visual injury rating after approximately 10 d, read-out: Ryegrass, Italian plant response rating (0 to 100 scale, 0 no effect, 100 complete control)): 30%; plant injury at 125 g/ha ([11]; visual injury rating after approximately 10 d, read-out: Wheat plant response rating (0 to 100 scale, 0 no effect, 100 complete control)): 40%; pest or weed control at 250 g/ha ([12]; Echinochloa crus-galli, scale of 0 to 100 where 0 is no effect and 100 is complete control, read-out: Barnyardgrass plant response rating): 60%; pest or weed control at 250 g/ha ([13]; Heteranthera limosa, scale of 0 to 100 where 0 is no effect and 100 is complete control, read-out: Ducksalad plant response rating): 75%; pest or weed control at 250 g/ha ([14]; Oryza sativa, scale of 0 to 100 where 0 is no effect and 100 is complete control, read-out: Rice plant response rating): 0%; pest or weed control at 250 g/ha ([15]; Cyperus difformis, scale of 0 to 100 where 0 is no effect and 100 is complete control, read-out: Sedge, Umbrella plant response rating): 0%"
